USRE47493E1, “Substituted bicyclic dihydropyrimidinones and their use as inhibitors of neutrophil elastase activity” (Boehringer Ingelheim International GmbH, priority 2014, dated 2019)
Values after ≈ are worked out from the molar mass of the structure shown.

Experiments:
[1] = Assay for the Determination of Metabolic Stability with Human Liver Microsomes; assay type: in vitro ADME; conditions: pooled human liver microsomes, 37° C., NADPH; for half-life at 1 nM: pH 7.6, read-out: t1/2 INVITRO
Experimental: Assay for the Determination of Metabolic Stability with Human Liver Microsomes
The metabolic degradation of the test compound is assayed at 37° C. with pooled human liver microsomes. The final incubation volume of […] per time point contains TRIS buffer pH 7.6 (0.1 M), magnesium chloride (5 mM), microsomal protein (1 mg/ml) and the test compound at a final concentration of […]. Following a short preincubation period at 37° C., the reactions are initiated by addition of beta-nicotinamide adenine dinucleotide phosphate, reduced form (NADPH, 1 mM) and terminated by transfering an aliquot into acetonitrile after different time points. Additionally, the NADPH-independent degradation is monitored in incubations without NADPH, terminated at the last time point. The rol remaining test compound after NADPH independent incubation is reflected by the parameter c(control) (metabolic stability). The quenched incubations are pelleted by centrifugation (10′000 g, 5 min) An aliquot of the supernatant is assayed by LC-MS/MS for the amount of parent compound.
The half-life (t1/2 INVITRO) is determined by the slope of the semilogarithmic plot of the concentration-time profile. The intrinsic clearance (CL_[…]) is calculated by considering the amount of protein in the incubation: CL_[…][μl/min/mg protein]=(ln 2/(half-life [min]*protein content [mg/ml]))*1′000.
The half-life (t1/2 INVITRO) values of selected compounds in the metabolic stability assay described above are listed in Table 15.

[2] = Assay for the Determination of Metabolic Stability with Human Hepatocytes; assay type: in vitro ADME; conditions: scaled with well stirred model
Experimental: Assay for the Determination of Metabolic Stability with Human Hepatocytes
The metabolic degradation of the test compound is assayed in a human hepatocyte suspension. Human hepatocytes (typically cryopreserved) are incubated in an appropriate buffer system (e.g. Dulbecco's modified eagle medium plus 3.5 μg glucagon/500 mL, 2.5 mg insulin/500 mL and 3.75 mg/500 mL hydrocortison) containing 5% species serum. Following a (typically) […] preincubation in an incubator (37° C., 10% CO2), 5 μl of test compound solution (80 μM; from 2 mM stock solution in DMSO diluted 1:25 with medium) are added into 395 μl hepatocyte suspension (cell density in the range 0.25-5*10^6 cells/mL, typically 1*10^6 cells/mL; final concentration of test compound 1 μM, final DMSO concentration […]). The cells are incubated for six hours (incubator, orbital shaker) and samples (25 μl) are taken at 0, 0.5, 1, 2, 4 and 6 hours. Samples are transferred into acetonitrile and pelleted by centrifugation (5 min). The supernatant is transferred to a new 96-deepwell plate, evaporated under nitrogen and resuspended. The decline of parent compound is analyzed by LC-MS/MS.
The intrinsic clearance CL_[…] is calculated as follows: CL_[…]=Dose/AUC=(C0/CD)/(AUD+clast/k)*1′000/60 (C0: initial concentration in the incubation [μM], CD: cell density of vital cells [10^6 cells/mL], AUD: area under the data [μM*h], clast: concentration of last data point [μM], k: slope of the regression line for parent decline [h^−1])
The calculated in vitro hepatic intrinsic clearance can be scaled up to the intrinsic in vivo hepatic clearance and used to predict hepatic in vivo blood clearance (CL) by the use of a is liver model (well stirred model): CL_[…]_INVIVO [ml/min/kg]=(CL_[…] [μL/min/10^6 cells]* hepatocellularity[10^6 cells/g liver]*liver factor[g/kg bodyweight])/1′000 CL[ml/min/kg]=CL_[…]_INVIVO [ml/min/kg]*hepatic blood flow [ml/min/kg]/(CL_[…]_INVIVO [ml/min/kg]+hepatic blood flow [ml/min/kg]) Qh[%]=CL[ml/min/kg]/hepatic blood flow[ml/min/kg]) (Hepatocellularity, human: 120*10^6 cells/g liver; lver factor, human: 25.7 g/kg bodyweight; blood flow, human: 21 ml/(min*kg))
The predicted human hepatic in vivo blood clearance (CL) of selected compounds in the metabolic stability assay described above are listed in Table 16.

[3] = Assay for Determination of Drug Transport Across Human CACO-2 Cells; assay type: in vitro ADME; conditions: human; for efflux ratio at 2 h, 10 nM: pH 7.2, Caco-2, PEBA/PEAB; for Papp A→B at 10 nM: Caco-2, apical-to-basal, read-out: PEAB; for Papp A→B at 10 nM / Papp B→A at 10 nM: pH 7.2, 37° C.; for Papp B→A at 10 nM: Caco-2, basal-to-apical, read-out: PEBA
Excerpt: (§1) Assay for Determination of Drug Transport Across Human CACO-2 Cells
(§2) The assay provides information on the potential of a compound to pass the cell membrane, on the extent of oral absorption as well as on whether the compound is actively transported by uptake and/or efflux transporters. For the measurement of permeability across polarized, confluent human cancer colon carcinoma cells 2 (Caco-2) cell monolayers grown on permeable filter supports are used as the in vitro absorption model. Apparent permeability coefficients (PE) of the compounds across the Caco-2 monolayers are measured (pH 7.2, 37° C.) in apical-to-basal (AB) (absorptive) and basal-to-apical (BA) (secretory) transport direction. AB permeability (PEAB) represents drug absorption from the intestine into the blood and BA permeability (PEBA) drug secretion from the blood back into the intestine via both passive permeability as well as active transport mechanisms mediated by efflux and uptake transporters that are expressed on the Caco-2 cells. The compounds are assigned to permeability/absorption classes by comparison of the AB permeabilities with the AB permeabilities of reference compounds with known in vitro permeability and oral absorption in the human. Identical or similar permeabilities in both transport directions indicate passive permeation, vectorial permeability points to additional active transport mechanisms. […] Active transport is concentration-dependently saturable.
(§3) Caco-2 cells (1−2*10^5 cells/cm^2 area) are seeded on filter inserts (Costar transwell polycarbonate or PET filters, […] pore size) and cultured (DMEM) for 10 to 25 days. Compounds are dissolved in appropriate solvent (like DMSO, 1-20 mM stock solutions). Stock solutions are diluted with HTP-4 buffer (128.13 mM NaCl, 5.36 mM KCl, 1 mM MgSO4, 1.8 mM CaCl2, 4.17 mM NaHCO3, 1.19 mM Na2HPO4×7H2O, 0.41 mM NaH2PO4×H2O, 15 mM HEPES, 20 mM glucose, pH 7.2) to prepare the transport solutions (typically […] compound, final DMSO <=0.5%). The transport solution (TL) is applied to the apical or basolateral donor side for measuring A-B or B-A permeability (3 filter replicates), respectively. The receiver side contains HTP-4 buffer supplemented with 2% BSA. Samples are collected at the start and end of experiment from the donor and at various time intervals for up to 2 hours also from the receiver side for concentration measurement by LC-MS/MS or scintillation counting. Sampled receiver volumes are is replaced with fresh receiver solution.
(§4) The apparent permeability coefficients (PEAB and PEBA) and efflux ratios (PEBA/PEAB) of selected compounds in the Caco-2 drug transport assay described above are listed in Table 17.

[4] = Assay for Determination of Aqueous Solubility; assay type: physicochemical; conditions: McIlvaine buffer pH 6.8, 2.5% DMSO; for solubility at 24 h: McIlvaine buffer pH 6.8 with 2.5% DMSO, aqueous buffer, kinetic from dmso stock; for Aqueous solubility: 24 h
Experimental: Assay for Determination of Aqueous Solubility
The aqueous solubility of a compound is determined by comparing the amount dissolved in aqueous buffer (containing 2.5% DMSO) to the amount dissolved in an acetonitrile/water (1/1) solution. Starting from a 10 mM DMSO stock solution, aliquots are diluted with acetonitrile/water (1/1) and Mcllvaine buffer pH 6.8, respectively. After 24 h of shaking, the solutions or suspensions are filtered and analyzed by LC-UV. The amount dissolved in buffer is compared to the amount dissolved in the acetonitrile/water (1/1) solution. Solubility is measured from 0.001 to 0.125 mg/ml at a DMSO concentration of 2.5%. If more than 90% of the compound is dissolved in buffer, the value is marked with “>”.

Caco-2 cell monolayers = assay: Assay for Determination of Drug Transport Across Human CACO-2 Cells; assay type: in vitro ADME; conditions: for Efflux ratio: Caco-2, PEBA/PEAB; for PEAB: Caco-2, apical-to-basal; for PEAB / PEBA: pH 7.2, 37° C.; for PEBA: Caco-2, basal-to-apical
Excerpt: as §1, §2, §3, §4

| SMILES | half-life at 1 nM [1] | CL (predicted human hepatic in vivo blood clearance) [2] | efflux ratio at 2 h, 10 nM [3] | Papp A→B at 10 nM [3] | Papp B→A at 10 nM [3] | solubility at 24 h [4] | t1/2 INVITRO [1] | Aqueous solubility [4] | Efflux ratio (Caco-2 cell monolayers) | PEAB (Caco-2 cell monolayers) | PEBA (Caco-2 cell monolayers) |
| --- | --- | --- | --- | --- | --- | --- | --- | --- | --- | --- | --- |
| CN1C(=O)N(c2cccc(C(F)(F)F)c2)C2=C(C(=O)CCC2)[C@H]1c1ccc(C#N)cc1S(C)(=O)=O [Example 48, (S)-4-(3-Methyl-2,5-dioxo-1-(3-(trifluoromethyl)phenyl)-1,2,3,4,5,6,7,8-octahydroquinazolin-4-yl)-3-(methylsulfonyl)benzonitrile] | > 2.17 h | 3 mL/min/kg | 1.6 | 60 ×10⁻⁶ cm/s | 98 ×10⁻⁶ cm/s | – | – | – | – | – | – |
| CN1C(=O)N(c2ccnc(C(F)(F)F)c2)C2=C(C(=O)CCC2)C1c1ccc(C#N)cc1S(C)(=O)=O (stereo not drawn) [Example 64, 4-(3-Methyl-2,5-dioxo-1-(2-(trifluoromethyl)pyridin-4-yl)-1,2,3,4,5,6,7,8-octahydroquinazolin-4-yl)-3-(methylsulfonyl)benzonitrile] | > 2.17 h | 0 mL/min/kg | 4.4 | 17.1 ×10⁻⁶ cm/s | 75.7 ×10⁻⁶ cm/s | 8 µg/mL (≈ 15.9 µM) | – | – | – | – | – |
| CS(=O)(=O)c1cc(C#N)ccc1[C@@H]1C2=C(CCCC2=O)N(c2cccc(C(F)(F)F)c2)C(=O)N1C(N)=O [Example 75, (S)-4-(4-Cyano-2-(methylsulfonyl)phenyl)-2,5-dioxo-1-(3-(trifluoromethyl)phenyl)-1,2,5,6,7,8-hexahydroquinazoline-3(4H)-carboxamide] | > 2.17 h | – | – | – | – | 79 µg/mL (≈ 148 µM) | – | – | – | – | – |
| CS(=O)(=O)c1cc(C#N)ccc1[C@@H]1C2=C(CCCC2=O)N(c2cccc(C(F)(F)F)c2)C(=O)N1S(C)(=O)=O [Example 68, (S)-3-(Methylsulfonyl)-4-(3-(methylsulfonyl)-2,5-dioxo-1-(3-(trifluoromethyl)phenyl)-1,2,3,4,5,6,7,8-octahydroquinazolin-4-yl)benzonitrile] | > 2.17 h | 0 mL/min/kg | – | – | – | 57 µg/mL (≈ 100 µM) | – | – | – | – | – |

Now from value to compound:

| half-life at 1 nM [1] | CL (predicted human hepatic in vivo blood clearance) [2] | efflux ratio at 2 h, 10 nM [3] | Papp A→B at 10 nM [3] | Papp B→A at 10 nM [3] | solubility at 24 h [4] | t1/2 INVITRO [1] | Aqueous solubility [4] | Efflux ratio (Caco-2 cell monolayers) | PEAB (Caco-2 cell monolayers) | PEBA (Caco-2 cell monolayers) | SMILES |
| --- | --- | --- | --- | --- | --- | --- | --- | --- | --- | --- | --- |
| – | – | – | – | – | – | >2.17 h | 6 µg/mL | – | – | – | N#Cc1ccc(C2C3=C(CCCC3=O)N(c3cccc(C(F)(F)F)c3)C(=O)N2C(=O)NCCO)cc1 (stereo not drawn) [Example 39.3] |
| – | 0 mL/min/kg | – | – | – | – | >2.17 h | 9 µg/mL | – | – | – | CS(=O)(=O)CCNC(=O)N1C(=O)N(c2cccc(C(F)(F)F)c2)C2=C(C(=O)CCC2)C1c1ccc(C#N)cc1 (stereo not drawn) [Example 39.19] |
| – | 0 mL/min/kg | – | – | – | – | >2.17 h | 905 µg/mL | 10.8 | 8.4 ×10⁻⁶ cm/s | 90.6 ×10⁻⁶ cm/s | CS(=O)(=O)c1cc(C#N)ccc1[C@@H]1C2=C(CCCC2=O)N(c2cccc(C(F)(F)F)c2)C(=O)N1C(=O)NCC(F)F [Example 75.7] |
| – | 0 mL/min/kg | – | – | – | – | >2.17 h | 9 µg/mL | 3.7 | 22.8 ×10⁻⁶ cm/s | 85.3 ×10⁻⁶ cm/s | CC(C)NC(=O)N1C(=O)N(c2cccc(C(F)(F)F)c2)C2=C(C(=O)CCC2)[C@H]1c1ccc(C#N)cc1S(C)(=O)=O [Example 75.3] |
